Experimental data reported in paper PMC8228600, “Design, Synthesis, In Vitro and In Vivo Evaluation of Heterobivalent SiFAlin-Modified Peptidic Radioligands Targeting Both Integrin αvβ3 and the MC1 Receptor—Suitable for the Specific Visualization of Melanomas?” (Pharmaceuticals, 2021).
Where two headings read alike, the source gives them in different places.

Key:
B16F10 and U87MG tumors = assay: In vivo dynamic PET/CT imaging and time–activity curves; set-up: species or system nude mice (Balb/cAnNRj-Foxn1nu/nu)
Method: (§1) For the evaluation of the in vivo pharmacokinetics, the two most promising HBPLs—[^18F]2 with the highest affinity to both target receptors and [^18F]4 with the highest hydrophilicity and still reasonable binding affinities—were selected. For PET/CT imaging, 6-week-old male nude mice (Balb/cAnNRj-Foxn1^nu/nu) were subcutaneously injected with 5 × 10^5 B16F10 cells into the right flank and 2.0–2.5 × 10^6 U87MG cells into the left flank to generate the respective receptor-positive tumors. When the tumors reached a sufficient size for imaging, each mouse was administered 4.15 ± 2.28 MBq of [^18F]2 or 3.95 ± 2.06 MBq of [^18F]4 via the lateral tail vein under isoflurane anesthesia. To determine the receptor specificity of both peptide parts of the labeled HBPLs and their relative contribution to overall tumor uptake, blocking experiments were also performed. […] After i.v. injection of the tracers, a dynamic PET scan, followed by a CT scan, was performed. The resulting PET/CT images and time–activity curves (TACs) are depicted in Figure 6, Figure 7 and Figure 8. After completion of the diagnostic scans, the mice were sacrificed, their organs (blood, spleen, liver, kidney, pancreas, lung, heart, brain, bone, muscle, tail, tumors, stomach, colon and small intestine) were collected and measured in a γ-counter for ex vivo biodistribution (see Supplementary Materials Table S1 for detailed results).
Briefly, 4–5-week-old male nude mice (Balb/cAnNRj-Foxn1^nu/nu) were obtained from Janvier. A dynamic PET scan over 90 min and a subsequent CT image over 20 min were acquired using a triple-modality Bruker Albira II small-animal PET/CT/SPECT scanner. Three animals were studied per group.
(§2) Each male nude mouse (six weeks old) was injected subcutaneously with 5 × 10^5 B16F10 cells into the right flank and 2.0–2.5 × 10^6 U87MG cells into the left flank. The health status and tumor growth of the mice were monitored regularly until the animals could be examined after 15–21 days, depending on the tumor size. For the in vivo experiments, the ^18F-radiolabeled compound was diluted in 0.9% saline to give a final EtOH concentration of <10%. Each mouse was injected with 4.15 ± 2.28 MBq of [^18F]2 or 3.95 ± 2.06 MBq of [^18F]4 via the lateral tail vein under isoflurane anesthesia. […] Each ^18F-labeled compound was studied with or without blocking in at least three mice. Mice were measured under isoflurane anesthesia in a small PET/SPECT/CT animal imaging system. First, a dynamic PET scan was performed over 90 min and the scan was framed in 29 timeframes (10 × 1 min, 10 × 2 min, 6 × 5 min, 3 × 10 min). Images were reconstructed using 12 iterations, a maximum likelihood expectation maximization (MLEM) algorithm including corrections for scattered radiation and decay and a voxel size of 0.5 mm. All PET scans were immediately followed by CT acquisition at a voltage of 45 kV and a current of 400 μA. The images were reconstructed using the filtered back projection (FBP) algorithm with a voxel size of 250 μm. The analysis of the data, including the generation of TACs of the kidneys, liver and tumors and the MIPs, was performed via PMOD (v3.8). For ex vivo biodistribution, the mice were sacrificed directly after the PET/CT scan. Organs (blood, spleen, liver, kidneys, pancreas, lungs, heart, brain, bone, muscle, tail, tumors, stomach, colon and small intestine) were collected, weighed and their radioactivity measured in a γ-counter. The percentage injected dose per gram (% ID/g) of each tissue was calculated from the determined values, organ weights, reference values and injected activity.

[1] = system: MC1R-positive B16F10 tumors; assay: Ex vivo biodistribution: uptake in B16F10 tumors and tumor-to-organ ratios; set-up: species or system nude mice (Balb/cAnNRj-Foxn1nu/nu); details: NDP blocking (20 μg coinjected); ex vivo after PET/CT scan; i.v.; n = 3
Method: as §1, §2

[2] = as above; set-up: species or system nude mice (Balb/cAnNRj-Foxn1nu/nu); details: male, Balb/cAnNRj-Foxn1nu/nu (nude), mouse, iv, total radioactivity; for tissue uptake: B16F10 tumor (MC1R-positive); for tissue to tissue ratio: ex vivo biodistribution, mean (n = 3) ± SD
Method: as §1, §2

[3] = Ex vivo biodistribution in tumor-bearing nude mice (non-tumor tissues); details: male, Balb/cAnNRj-Foxn1nu/nu (nude), mouse, iv, total radioactivity, ex vivo after PET/CT scan, i.v., n = 3
Method: as §1, §2

## CCCC[C@H](NC(=O)CNC(=O)CNC(=O)CCOCCOCCOCCOCCC(=O)NCCCN(CCCNC(=O)CCOCCOCCOCCOCCC(=O)NCCCC[C@@H]1NC(=O)[C@@H](Cc2ccccc2)NC(=O)[C@H](CC(=O)O)NC(=O)CNC(=O)[C@H](CCCNC(=N)N)NC1=O)CC(=O)N[C@@H](CCCCNC(=O)CCC[N+](C)(C)Cc1ccc([Si](F)(C(C)(C)C)C(C)(C)C)cc1)C(N)=O)C(=O)N[C@H]1CC(=O)NCCCC[C@@H](C(N)=O)NC(=O)[C@H](Cc2c[nH]c3ccccc23)NC(=O)[C@H](CCCNC(=N)N)NC(=O)[C@@H](Cc2ccccc2)NC(=O)[C@H](Cc2c[nH]cn2)NC1=O [[^18F]2]
B16F10 and U87MG tumors; PET/CT scans, MIPs 50–90 min post-injection
  visualization of B16F10 and U87MG tumors by PET/CT: clearly visualize
B16F10 and U87MG tumors; dynamic PET over 90 min, i.v.
  time at which uptakes in kidneys and liver reached their maximum (TACs): 5 to 10 min
B16F10 and U87MG tumors; dynamic PET over 90 min, i.v., B16F10 and U87MG tumors
  time at which the curves of both tumors approached a plateau (TACs): about 70 min
[1]
  ID/g, B16F10 tumor: 1.83 ± 0.24 % ID/g
[2]; NDP blocking (20 μg coinjected), ex vivo after PET/CT scan, i.v., n = 3
  tissue uptake: 1.83 ± 0.24 %ID/g
[2]; c(RGDyK) blocking (200 μg coinjected), ex vivo after PET/CT scan, i.v., n = 3
  tissue uptake: 1.98 ± 0.18 %ID/g
[2]; double blocking (NDP + c(RGDyK)), ex vivo after PET/CT scan, i.v., n = 3
  tissue uptake: 1.14 ± 0.42 %ID/g
[2]; without blocking, ex vivo after PET/CT scan, i.v., n = 3
  tissue uptake: 2.32 ± 0.49 %ID/g
[2]; B16F10 tumor / blood, without blocking, read-out: tumor/blood ratio, B16F10
  tissue to tissue ratio: 2.42 ± 0.73
[2]; B16F10 tumor / kidneys, without blocking, read-out: tumor/kidneys ratio, B16F10
  tissue to tissue ratio: 0.19 ± 0.1
[2]; B16F10 tumor / liver, without blocking, read-out: tumor/liver ratio, B16F10
  tissue to tissue ratio: 0.16 ± 0.11
[2]; B16F10 tumor / muscle, without blocking, read-out: tumor/muscle ratio, B16F10
  tissue to tissue ratio: 0.68 ± 0.41
[2]; B16F10 tumor, without blocking, ex vivo after PET/CT scan, i.v., n = 3
  tissue uptake at 1.5 h: 2.32 ± 0.49 %ID/g
[3]; blood, NDP blocking (20 μg coinjected), read-out: ID/g, blood
  tissue uptake at 1.5 h: 0.84 ± 0.12 %ID/g
[3]; blood, c(RGDyK) blocking (200 μg coinjected), read-out: ID/g, blood
  tissue uptake at 1.5 h: 1.14 ± 0.15 %ID/g
[3]; blood, double blocking (NDP + c(RGDyK)), read-out: ID/g, blood
  tissue uptake at 1.5 h: 1.13 ± 0.1 %ID/g
[3]; blood, without blocking, read-out: ID/g, blood
  tissue uptake at 1.5 h: 0.99 ± 0.23 %ID/g
[3]; bone, NDP blocking (20 μg coinjected), read-out: ID/g, bone
  tissue uptake at 1.5 h: 9.74 ± 2.85 %ID/g
[3]; bone, c(RGDyK) blocking (200 μg coinjected), read-out: ID/g, bone
  tissue uptake at 1.5 h: 4.12 ± 0.73 %ID/g
[3]; bone, double blocking (NDP + c(RGDyK)), read-out: ID/g, bone
  tissue uptake at 1.5 h: 4.47 ± 1.57 %ID/g
[3]; bone, without blocking, read-out: ID/g, bone
  tissue uptake at 1.5 h: 8.01 ± 3.48 %ID/g
[3]; brain, NDP blocking (20 μg coinjected), read-out: ID/g, brain
  tissue uptake at 1.5 h: 0.13 ± 0.03 %ID/g
[3]; brain, c(RGDyK) blocking (200 μg coinjected), read-out: ID/g, brain
  tissue uptake at 1.5 h: 0.13 ± 0.05 %ID/g
[3]; brain, double blocking (NDP + c(RGDyK)), read-out: ID/g, brain
  tissue uptake at 1.5 h: 0.07 ± 0.01 %ID/g
[3]; brain, without blocking, read-out: ID/g, brain
  tissue uptake at 1.5 h: 0.18 ± 0.02 %ID/g
[3]; colon, NDP blocking (20 μg coinjected), read-out: ID/g, colon
  tissue uptake: 1.44 ± 0.34 %ID/g
[3]; colon, c(RGDyK) blocking (200 μg coinjected), read-out: ID/g, colon
  tissue uptake: 0.5 ± 0.07 %ID/g
[3]; colon, double blocking (NDP + c(RGDyK)), read-out: ID/g, colon
  tissue uptake: 0.63 ± 0.2 %ID/g
[3]; colon, without blocking, read-out: ID/g, colon
  tissue uptake: 1.58 ± 0.44 %ID/g
[3]; heart, NDP blocking (20 μg coinjected), read-out: ID/g, heart
  tissue uptake at 1.5 h: 1.06 ± 0.31 %ID/g
[3]; heart, c(RGDyK) blocking (200 μg coinjected), read-out: ID/g, heart
  tissue uptake at 1.5 h: 0.62 ± 0.09 %ID/g
[3]; heart, double blocking (NDP + c(RGDyK)), read-out: ID/g, heart
  tissue uptake at 1.5 h: 0.93 ± 0.18 %ID/g
[3]; heart, without blocking, read-out: ID/g, heart
  tissue uptake at 1.5 h: 1.24 ± 0.36 %ID/g
[3]; kidneys, NDP blocking (20 μg coinjected), read-out: ID/g, kidneys
  tissue uptake at 1.5 h: 17.3 ± 2.08 %ID/g
[3]; kidneys, c(RGDyK) blocking (200 μg coinjected), read-out: ID/g, kidneys
  tissue uptake at 1.5 h: 12.1 ± 2.3 %ID/g
[3]; kidneys, double blocking (NDP + c(RGDyK)), read-out: ID/g, kidneys
  tissue uptake at 1.5 h: 24 ± 6.34 %ID/g
[3]; kidneys, without blocking, read-out: ID/g, kidneys
  tissue uptake at 1.5 h: 13.2 ± 3.57 %ID/g
[3]; liver, NDP blocking (20 μg coinjected), read-out: ID/g, liver
  tissue uptake at 1.5 h: 14.9 ± 5.07 %ID/g
[3]; liver, c(RGDyK) blocking (200 μg coinjected), read-out: ID/g, liver
  tissue uptake at 1.5 h: 4.94 ± 1.39 %ID/g
[3]; liver, double blocking (NDP + c(RGDyK)), read-out: ID/g, liver
  tissue uptake at 1.5 h: 8.5 ± 2.71 %ID/g
[3]; liver, without blocking, read-out: ID/g, liver
  tissue uptake: 17.2 ± 6.58 %ID/g
[3]; lung, NDP blocking (20 μg coinjected), read-out: ID/g, lung
  tissue uptake at 1.5 h: 2.98 ± 0.87 %ID/g
[3]; lung, c(RGDyK) blocking (200 μg coinjected), read-out: ID/g, lung
  tissue uptake at 1.5 h: 1.07 ± 0.15 %ID/g
[3]; lung, double blocking (NDP + c(RGDyK)), read-out: ID/g, lung
  tissue uptake at 1.5 h: 1.3 ± 0.36 %ID/g
[3]; lung, without blocking, read-out: ID/g, lung
  tissue uptake at 1.5 h: 2.89 ± 1.04 %ID/g
[3]; muscle, NDP blocking (20 μg coinjected), read-out: ID/g, muscle
  tissue uptake at 1.5 h: 1.37 ± 0.26 %ID/g
[3]; muscle, c(RGDyK) blocking (200 μg coinjected), read-out: ID/g, muscle
  tissue uptake at 1.5 h: 0.38 ± 0.04 %ID/g
[3]; muscle, double blocking (NDP + c(RGDyK)), read-out: ID/g, muscle
  tissue uptake at 1.5 h: 0.34 ± 0.07 %ID/g
[3]; muscle, without blocking, read-out: ID/g, muscle
  tissue uptake at 1.5 h: 4.37 ± 2.58 %ID/g
[3]; pancreas, NDP blocking (20 μg coinjected), read-out: ID/g, pancreas
  tissue uptake at 1.5 h: 0.8 ± 0.15 %ID/g
[3]; pancreas, c(RGDyK) blocking (200 μg coinjected), read-out: ID/g, pancreas
  tissue uptake at 1.5 h: 0.36 ± 0.04 %ID/g
[3]; pancreas, double blocking (NDP + c(RGDyK)), read-out: ID/g, pancreas
  tissue uptake at 1.5 h: 0.55 ± 0.15 %ID/g
[3]; pancreas, without blocking, read-out: ID/g, pancreas
  tissue uptake at 1.5 h: 0.91 ± 0.29 %ID/g
[3]; small intestine, NDP blocking (20 μg coinjected), read-out: ID/g, small intestine
  tissue uptake: 2.75 ± 0.36 %ID/g
[3]; small intestine, c(RGDyK) blocking (200 μg coinjected), read-out: ID/g, small intestine
  tissue uptake: 0.75 ± 0.11 %ID/g
[3]; small intestine, double blocking (NDP + c(RGDyK)), read-out: ID/g, small intestine
  tissue uptake: 0.9 ± 0.23 %ID/g
[3]; small intestine, without blocking, read-out: ID/g, small intestine
  tissue uptake: 2.46 ± 1.77 %ID/g
[3]; spleen, NDP blocking (20 μg coinjected), read-out: ID/g, spleen
  tissue uptake: 2.75 ± 0.55 %ID/g
[3]; spleen, c(RGDyK) blocking (200 μg coinjected), read-out: ID/g, spleen
  tissue uptake: 0.94 ± 0.19 %ID/g
[3]; spleen, double blocking (NDP + c(RGDyK)), read-out: ID/g, spleen
  tissue uptake: 1.07 ± 0.32 %ID/g
[3]; spleen, without blocking, read-out: ID/g, spleen
  tissue uptake: 2.73 ± 0.85 %ID/g
[3]; stomach, NDP blocking (20 μg coinjected), read-out: ID/g, stomach
  tissue uptake: 1.52 ± 0.31 %ID/g
[3]; stomach, c(RGDyK) blocking (200 μg coinjected), read-out: ID/g, stomach
  tissue uptake: 0.54 ± 0.04 %ID/g
[3]; stomach, double blocking (NDP + c(RGDyK)), read-out: ID/g, stomach
  tissue uptake: 0.54 ± 0.12 %ID/g
[3]; stomach, without blocking, read-out: ID/g, stomach
  tissue uptake: 1.56 ± 0.29 %ID/g
[3]; tail, NDP blocking (20 μg coinjected), read-out: ID/g, tail
  tissue uptake at 1.5 h: 37.6 ± 8.67 %ID/g
[3]; tail, c(RGDyK) blocking (200 μg coinjected), read-out: ID/g, tail
  tissue uptake at 1.5 h: 69 ± 3.84 %ID/g
[3]; tail, double blocking (NDP + c(RGDyK)), read-out: ID/g, tail
  tissue uptake: 53.3 ± 12.8 %ID/g
[3]; tail, without blocking, read-out: ID/g, tail
  tissue uptake at 1.5 h: 38 ± 14.4 %ID/g
